{"source": "a melting point compilation (Tetko et al.; mined from patent text by program, amines drawn as free bases though some values may be those of a salt)"}
{"units": {"melting point": "°C"}}
{"smiles": "CC(C)[C@H]1COC(=O)N1C(=O)[C@@H](CC(=O)N(C)Cc1ccccc1)Cc1ccccc1", "melting point": "60 to 62"}
{"smiles": "CCC1OC(=O)Nc2ccc(-c3cccc(Cl)c3)cc21", "note": "(stereo not drawn)", "melting point": "146 to 148"}
{"smiles": "CCCCCCCCCN1C(=O)N(c2ccc([N+](=O)[O-])c(C(F)(F)F)c2)C(=O)C1(C)C", "melting point": 63}
{"smiles": "Nc1nc2c(OCCO)cccc2o1", "melting point": "124 to 126"}
{"smiles": "Oc1ccc2c(c1)OCC(c1ccc(F)cc1)C2c1ccc(OCCCN2CCCCC2)cc1", "note": "(stereo not drawn)", "melting point": "78 to 84"}
{"smiles": "CCOC(=O)C1=C(C)N(CCOC(=O)c2ccccc2)C(=O)NC1c1ccccc1", "note": "(stereo not drawn)", "melting point": 129}
{"smiles": "COc1c(Cl)ccc(-c2cc(N)c(Cl)c(C(=O)NOC3CCCCO3)n2)c1F", "note": "(stereo not drawn)", "melting point": "176 to 179"}
{"smiles": "COCCOc1ccc(CCCO)c(Oc2ncc(C(F)(F)F)cc2Cl)c1", "melting point": "70 to 71"}
{"smiles": "COc1cc2c(cc1OC)C(c1ccc(SC(F)(F)F)cc1)CNCC2", "note": "(stereo not drawn)", "melting point": 95}
{"smiles": "COc1ccc(C2=NN(C3CCN(S(=O)(=O)c4ccc(C)cc4)CC3)C(=O)CC2)cc1OC", "melting point": "179 to 184"}
{"smiles": "NC(=O)/C=C1\\CCc2c(F)cc(Cl)cc21", "melting point": "171 to 173"}
{"smiles": "CCSc1cccc(OC(F)(F)F)c1S(=O)(=O)NC(=O)c1noc(C)n1", "melting point": 111}
{"smiles": "O=C(C(Br)c1ccc(Cl)cc1)C1(c2ccc(Cl)c(Cl)c2)CCC1", "note": "(stereo not drawn)", "melting point": "109 to 110"}
{"smiles": "CCOC(=O)C1(C(=O)N(C)c2cccc3cc(-c4nccs4)[nH]c23)CCC1", "melting point": 197}
{"smiles": "O=C1C=c2c(c3c4ccccc4[nH]c3c3[nH]c4ccccc4c23)=N1", "melting point": "> 320"}
{"smiles": "COC(=O)c1cc2[nH]nc(N)c2s1", "melting point": "218 to 220"}
{"smiles": "O=C(F)[C@@H]1C[C@H](F)CN1C(=O)OCC1c2ccccc2-c2ccccc21", "melting point": "127 to 128"}
{"smiles": "Cc1ccc(-c2c(CNC(=O)OC(C)(C)C)n(CC(C)C)c(=O)c3ccc(C(=O)O)cc23)cc1", "melting point": "230 to 231"}
{"smiles": "O=C(c1ccccc1)c1cc([N+](=O)[O-])ccc1NC1CCCCC1", "melting point": 75}
{"smiles": "O=S(=O)(O)NCc1ccncc1", "melting point": "227 to 228"}
{"smiles": "COc1cccc(N(CC(=O)OC(C)(C)C)C(=O)CN2C(=O)c3ccccc3C2=O)c1", "melting point": 148}
{"smiles": "CS(=O)(=O)N(Cc1ccccn1)CC(O)(Cn1cncn1)c1ccc(Cl)cc1Cl", "note": "(stereo not drawn)", "melting point": "154 to 156"}
{"smiles": "CC(C)(C)OC(=O)CN(Cc1cc(C(F)(F)F)cc(C(F)(F)F)c1)Cc1cc2ccccc2nc1Cl", "melting point": 84}
{"smiles": "CN1CCCCC1COC(=O)Nc1cccc(Br)c1", "note": "(stereo not drawn)", "melting point": "67.3 to 68.1"}
{"smiles": "C=CCOc1c(N)cc2c(C)cc(=O)oc2c1C", "melting point": "146 to 147"}
{"smiles": "OCCCc1conc1-c1ccc(F)c(Br)c1", "melting point": "40 to 41"}
{"smiles": "COC(=O)c1ccccc1Nc1cccc(C(C)NO)c1C", "note": "(stereo not drawn)", "melting point": "114 to 116"}
{"smiles": "Nc1ncc2sc(=O)n(C3OC(CO)C(O)C3O)c2n1", "note": "(stereo not drawn)", "melting point": 220}
{"smiles": "CC(=O)N(C)CCc1ccc(C(=O)O)cc1", "melting point": "149 to 151"}
{"smiles": "C=CC1CN(S(=O)(=O)c2ccc(C)cc2)CCN1S(=O)(=O)c1ccc(C)cc1", "note": "(stereo not drawn)", "melting point": "177 to 178"}
{"smiles": "CCc1cnc(C)c(C(=O)O)c1", "melting point": "218 to 220"}
{"smiles": "CC(=O)Nc1nnc(S(=O)(=O)Cc2ccccc2)o1", "melting point": "245 to 248"}
{"smiles": "Cn1c(=O)c2c(Cl)nccc2n(C)c1=O", "melting point": 220}
{"smiles": "O=c1[nH]c(S)nnc1-c1cc(O)c(O)c([N+](=O)[O-])c1", "melting point": "282 to 284"}
{"smiles": "Cc1cccc(-c2[nH]c(C(C)C)nc2-c2cccc(-c3cccc(F)c3)c2)n1", "melting point": "140 to 142"}
{"smiles": "OC1CCc2c(Br)ccc(Nc3cc(-c4ccc(C(F)(F)F)cc4)ncn3)c2C1", "note": "(stereo not drawn)", "melting point": 192}
{"smiles": "CCOc1c(C)c(C)c(O)c(CNCCOc2cc(C)ccc2C(C)C)c1C", "melting point": "99 to 101"}
{"smiles": "Cn1cc(-c2cc(-c3ccsc3)ccn2)n(-c2ccc(C(C)(C)C#N)cc2)c1=O", "melting point": 209}
{"smiles": "CC(C)(C(=O)O)C1(Br)OC2=CC=CC2=CC1c1ccccc1", "note": "(stereo not drawn)", "melting point": "183 to 196"}
{"smiles": "COc1cccc(-c2cccc3c2C(=O)OC(C)(C)O3)n1", "melting point": "130 to 132"}
{"smiles": "COc1ccc(C(=O)NCCc2ccc(-c3ccc(O)cc3)cc2)cc1OC", "melting point": 170}
{"smiles": "CCOC(=O)CCc1cc(O)ccc1-c1ccc(-c2cccnc2)c(CO)c1", "melting point": "46 to 48"}
{"smiles": "Cc1cc(OS(=O)(=O)c2c(F)cccc2F)cc2c(C3CCN(C)CC3)cn(Cc3ccccc3)c12", "melting point": 158}
{"smiles": "O=C1CN(C(=O)CN2CC(c3ccc(F)cc3)CC2=O)CCN1", "note": "(stereo not drawn)", "melting point": "200 to 203"}
{"smiles": "COc1ccc(-c2nc(-c3cccn3C)[nH]c2-c2ccc(OC)cc2)cc1", "melting point": 110}
{"smiles": "O=C(CCCCc1ccc2c(c1)OCO2)NC1CCCCC1", "melting point": "145 to 146"}
{"smiles": "CCOC(=O)C1=C(C)NC(N)=C(C(=O)OC(C)C)C1c1ccccc1C#N", "note": "(stereo not drawn)", "melting point": 200}
{"smiles": "CC(C)=Cn1ncc(OCc2ccc(I)nc2)c(Cl)c1=O", "melting point": "141 to 142"}
{"smiles": "O=C(O)CCC(=O)c1cccc(Cl)c1", "melting point": "105 to 107"}
{"smiles": "FC(F)(F)c1cccc(N=C2SCCN2C(=S)Nc2cccc(C(F)(F)F)c2)c1", "melting point": "116 to 117"}
{"smiles": "Cc1ccc(C23CC(C2)C(=O)N(C)C3=O)cc1", "melting point": "138 to 140"}
{"smiles": "Cc1nn(-c2cc3nc(S)sc3cc2F)c(=O)n1C(F)F", "melting point": "248 to 250"}
{"smiles": "CCNc1nc(C)c(C(=O)OCC)c(N2CCN(C)CC2)c1N", "melting point": "73 to 75"}
{"smiles": "CCCC(CCOc1c(-c2ccc(S(C)(=O)=O)cc2)cnn(-c2ccc(F)cc2)c1=O)SC", "note": "(stereo not drawn)", "melting point": "90 to 92"}
{"smiles": "Cc1cc(CC(C)(C)NCC(O)c2cc(OCc3ccccc3)cc3c2OCC(=O)N3)ccc1F", "note": "(stereo not drawn)", "melting point": "228 to 230"}
{"smiles": "Cc1ccc(S(=O)(=O)c2ncccc2NC(=O)N[C@@H](Cc2ccc(NC(=O)c3c(Cl)cccc3Cl)cc2)C(=O)O)cc1", "melting point": 180}
{"smiles": "NC(=O)c1[nH]cnc1OC(=O)C=Cc1cccc([N+](=O)[O-])c1", "melting point": 197}
{"smiles": "CN1CC(CCN2CCN(c3ccccn3)CC2)c2nc3ccccc3n2C1=O", "note": "(stereo not drawn)", "melting point": "158 to 159"}
{"smiles": "CCOC(=O)c1nc(C2CCCCC2)n(-c2cccc(Cl)c2F)c1Br", "melting point": "150 to 152"}
{"smiles": "CCCCOc1nc2cc(C)nn2c2c1cnc1c2cnn1CC", "melting point": "103 to 104"}
{"smiles": "CCCC(CC(CC)SC)CC1OC(n2cnc3c(N)ncnc32)C(O)C1O", "note": "(stereo not drawn)", "melting point": "78 to 80"}
{"smiles": "Sc1nnc(-c2ccc3[nH]ncc3c2)o1", "melting point": "283 to 284"}
{"smiles": "CC(=O)N1CC(C)=NN(c2cc(Cl)c(Cc3ccc(Cl)cc3)c(Cl)c2)C1=O", "melting point": "101 to 102"}
{"smiles": "CC(C)(C)OC(=O)NCCN(O)C(N)=O", "melting point": "144 to 146"}
{"smiles": "O=C(O)c1ccc(NC(=O)N(Cc2ccccc2)Cc2ccccc2)cc1", "melting point": "210 to 214"}
{"smiles": "CON=C(C#CCCl)C(=O)OC", "melting point": "64 to 67"}
{"smiles": "O=C(O)c1ccccc1-c1nc2ccccc2o1", "melting point": "> 250"}
{"smiles": "Nc1cc(=O)[nH]c(=O)n1-c1ccccc1", "melting point": "> 280"}
{"smiles": "CC(=O)c1ccc(N)c2c1OCCO2", "melting point": "135 to 136"}
{"smiles": "COc1ccc2c(c1)C(=O)N(c1ccc3c(c1)n(C)c(=O)n3C)C2", "melting point": "268 to 270"}
{"smiles": "Oc1c2c(nn1-c1ccccn1)CCc1cc(-c3ccc4c(c3)OCO4)ccc1-2", "melting point": "205 to 206"}
{"smiles": "Cc1cccc(C(=O)Nc2nc(=O)c3ccccc3[nH]2)c1", "melting point": "211 to 213"}
{"smiles": "O=C(NC1CNC1=O)OCc1ccccc1", "note": "(stereo not drawn)", "melting point": "160 to 161"}
